Measurements published in patent publication US4302578A, “Cephalosporin antibiotics” (priority 1971, dated 1981).
Entries after “also recorded” stand apart in the source; their conditions may differ. Where a name gives a salt, the structure may show the parent alone. Read-outs that look alike come from different tables or passages of the source.

Columns and labels:
[1] = test system: gram-negative and gram-positive infections; assay: in vivo protection against infection (summary statements); set-up: species or system mice; conditions: for protection against infections, oral: given orally; for in vivo protection / activity: mouse; for protection: 4000 mg. × dose, subcutaneous, infection not marked
From the text: (§1) The method employed in this characterization is as follows: Female white Swiss mice, average weight 20-23 grams, were infected intraperitoneally with 3-20 times the number of organisms calculated to be lethal for 50% of the infected control animals (3-20 LD50 doses). At the time of infection and again six hours later, therapy was given by the designated route. Controls of the virulence of the culture and the toxicity of the antibiotic for uninfected mice were included in the tests. Seven days after infection the test was considered complete and the amount of the antibiotic (I) that would be required to protect 50% of the infected and treated animals was calculated by the method of Knudsen and Curtis; J. Amer. Stat. Assoc. Vol. 42: page 282 (1947).
The method employed in these studies is the same as described above with regard to the in vivo characterization of 810A.

certain microorganisms = assay: resistance to bacterial inactivation / enzymatic degradation (summary statements); type: biochemical
From the text: Bacterial Inactivation With 810A: An in vitro study was designed to determine the resistance of Antibiotic 810A, to bacterial inactivation as compared with cephalosporin C, cephaloridine and cephalothin.

[2] = test system: gram-negative and gram-positive bacteria; assay: in vitro antibacterial activity (summary statements); type: cell-based
cephalosporinases = assay: resistance to cephalosporinases / penicillinase; type: biochemical
[3] = toxicity for uninfected mice; conditions: mouse, in vivo
From the text: as §1

Vibrio percolans MB-1272 = assay: disc-plate bioassay; conditions: for zone of inhibition at 100 µg/mL / zone of inhibition at 5 µg/mL: Comamonas terrigena
[4] = test system: Aerobacter cloacae (MB-2646); assay: bacterial inactivation, cell-free extract; type: biochemical
Description: The ability of Antibiotic 810A and cephalosporin C to withstand the degradative effect of the culture Aerobacter cloacae (MB-2646) was also determined. This culture is gram-negative and resistant to cephalosporin C. […] The source of the inactivating substance is a 1:160 dilution of the filtrate of an 18 hour 37° C. shake culture of Aerobacter cloacae MB-2646 in nutrient broth containing 0.2% yeast extract. Table XIV, infra, indicates the percent inactivation of Antibiotic 810A, cephalothin, cephaloridine and cephalosporin C on Vibrio percolans (MB-1272) via this method:
Using the same assay procedure as described above, Table XV, infra, indicates the relative resistance of Antibiotic 810A to enzymatic inactivation by Aerobacter cloacae. The starting concentration is 250 μg./ml. Results are expressed in μg./ml.

Proteus morganii 356 [5] = assay: mouse protection test, clinical isolate resistant to cephalosporins; type: in vivo, mice; conditions: Subcutaneous Route × 2 Doses (average of Two Trials)
From the text: as §1
Administration was by subcutaneous injection. At the completion of the test period, usually seven days after administration, the amount of product required to protect 50% of the mice (ED50) from this otherwise fatal injection was calculated:
In addition to the aforementioned in vivo trails of the product, a clinical isolate of Proteus morganii 356 which is resistant to cephalosporins and capable of degrading cephalosporin C, was employed in a mouse protection test performed in the same manner as reported above.

penicillinase = conditions: cited from earlier work
Proteus morganii 251 = assay: bacterial inactivation
Description: (§2) These cultures are: Escherichia coli 236, Proteus morganii 251, Proteus morganii 356 and Proteus mirabilis 241. […] In conducting the assay individual mixtures of the organisms and one of the antibiotic were sampled after four hours incubation and assayed for residual antibiotic activity. The procedure is the same assay method as described above against Alcaligenes faecalis MB-9 and A. viscosus MB-12.

Proteus morganii 356 [6] = assay: bacterial inactivation
Description: as §2

Proteus mirabilis 241 = assay: bacterial inactivation
Description: as §2

Escherichia coli 236 = assay: bacterial inactivation; conditions: four hours incubation; on B. subtilis (MB-964); 240 min
Description: as §2

[7] = test system: Alcaligenes faecalis (MB-9); assay: bacterial inactivation, washed bacterial cells
[8] = test system: gram-negative and gram-positive bacteria; conditions: cited from earlier work
[9] = test system: Salmonella gallinarum MB-1287; assay: disc-plate bioassay of derivatives; type: cell-based; conditions: 100γ/ml (Example 77)
From the text: (§3) Bioassay: The disc zone sizes in the following table are expressed in mm. for equal concentrations of antibiotic.

[10] = test system: Pseudomonas stutzeri MB-1231; assay: disc-plate bioassay of derivatives; type: cell-based; conditions: Stutzerimonas stutzeri, MB1231, equal concentrations, 100γ/ml (Example 71); read-out: disc zone size
From the text: (§4) Bioassay: The disc zone sizes in the following table are expressed in mm. for 100 γ/ml of antibiotic.
as §3

Escherichia coli W-MB-60 = assay: disc-plate bioassay of derivatives; type: cell-based; conditions: 100 γ/ml (Example 78)
From the text: as §4, §3

[11] = isoelectric point and pH stability; type: physicochemical; conditions: for stability, low pH: pH 1.5
[12] = urinary excretion and blood levels; type: in vivo, mice; conditions: mouse
[13] = 2 Hour Incubation, assayed on V. percolans (MB-1272) plates
[14] = four hours incubation, on B. subtilis (MB-964), 240 min

SMILES: COC(=Cc1ccc(OS(=O)(=O)O)cc1)C(=O)OCC1=C(C(=O)O)N2C(=O)[C@](NC(=O)CCC[C@@H](N)C(=O)O)(OC)[C@H]2SC1 [7β-(D-5-amino-5-carboxyvaleramido)-3-(α-methoxy-p-sulfooxycinnamoyloxymethyl)-7-methoxy-3-cephem-4-carboxylic acid]
- protection against infections, oral [1]: protects against infections due to Proteus vulgaris
- in vivo protection / activity [1]: when administered subcutaneously, it is effective against a variety of gram-negative and gram-positive infections
- resistance to inactivation / enzymatic degradation (certain microorganisms): more resistant to enzymatic degradation than cephalosporin C
- bactericidal action / development of resistance [2]: bactericidal
- resistance to cephalosporinases (cephalosporinases): greater resistance to cephalosporinases than cephalothin
- toxicity [3]: low order of toxicity in mice

SMILES: CO[C@@]1(NC(=O)CCC[C@@H](N)C(=O)O)C(=O)N2C(C(=O)O)=C(C)CS[C@@H]21 [7β-(D-5-amino-5-carboxyvaleramido)-3-methyl-7-methoxy-3-cephem-4-carboxylic acid]
- Bioactivity (Vibrio percolans MB-1272; 50 ug/ml): Inactive at 50 ug/ml

SMILES: O=C(Cc1cccs1)N[C@@H]1C(=O)N2C(C(=O)[O-])=C(C[n+]3ccccc3)CS[C@H]12 [Cephaloridine]
- Percent Inactivation After Incubation With Cell-Free Extract ([4]; aerobacter cloacae cell-free extract, 2 h): 96%
- protection [1]: failed to protect at 4000 mg. × dose
- ED50 (Proteus morganii 356 [5]): 9,270 μg

SMILES: CC(=O)OCC1=C(C(=O)O)N2C(=O)[C@@H](NC(=O)CCC[C@@H](N)C(=O)O)[C@H]2SC1 [Cephalosporin C]
- resistance to / degradation by penicillinase (penicillinase): possesses an inherent resistance to penicillinase
- Percent Inactivation After Incubation With Cell-Free Extract [4, 13]: 96%
- percent inactivation (Proteus morganii 251; [14]): > 99%
- percent inactivation (Proteus morganii 356 [6]; [14]): > 99%
- percent inactivation (Proteus mirabilis 241; [14]): 72%
- percent inactivation (Escherichia coli 236): > 99%
- Percent Inactivation After Incubation With Washed Bacterial Cells ([7]; 3 Hour Incubation, assayed on V. percolans (MB-1272) plates): > 99%
- Percent Inactivation After Incubation With Washed Bacterial Cells ([7]; 3 Hours Incubation, assayed on B. subtilis (MB-964) plates): > 99%
- antibacterial activity (background, words) [8]: only moderately active

SMILES: CC(=O)OCC1=C(C(=O)O)N2C(=O)[C@@H](NC(=O)Cc3cccs3)[C@H]2SC1 [Cephalothin]
- Percent Inactivation After Incubation With Cell-Free Extract [4, 13]: 66%
- protection [1]: failed to protect at 4000 mg. × dose
- ED50 (Proteus morganii 356 [5]): 20,000 μg

SMILES: CO[C@@]1(NC(=O)CCC[C@@H](N)C(=O)O)C(=O)N2C(C(=O)O)=C(COC(N)=O)CS[C@@H]21 [Disodium Salt of 842A]
- zone of inhibition at 100 µg/mL (Vibrio percolans MB-1272; MB1272, read-out: disc zone size, 100γ/ml (Example 77)): > 35 mm
- zone of inhibition at 100 µg/mL (Vibrio percolans MB-1272; MB1272, read-out: disc zone size, 100 γ/ml (Example 78)): 23 mm
- zone of inhibition at 5 µg/mL (Vibrio percolans MB-1272; MB1272, read-out: disc zone size, Example 70, (5γ/ml) printed at end of line, head 100γ/ml): 18 mm
- zone of inhibition at 5 µg/mL (Vibrio percolans MB-1272; MB1272, read-out: disc zone size, equal concentrations, 5γ/ml (Example 71)): 18 mm
- disc zone size [9]: 27 mm
- zone of inhibition at 100 µg/mL [10]: 21 mm
- disc zone size (Escherichia coli W-MB-60): 18 mm

SMILES: CO[C@@]1(NC(=O)CCC[C@@H](N)C(=O)O)C(=O)N2C(C(=O)O)=C(COC(N)=O)CS[C@@H]21 [Example 842A]
- protection against infections, oral [1]: protects against infections due to Paracolobactrum arizoniae 3270, Proteus vulgaris 1810, and Salmonella schottmuelleri 3010
- in vivo protection / activity ([1]; listed as Antibiotic 842A): protects against infection with three species of Proteus, two of Salmonella, one strain of Escherichia coli, two of Klebsiella and also against Paracolobactrum arizoniae, Aerobacter aerogenes, Pasteurella multocida and Diplococcus pneumoniae E400; also recorded: exhibits a significant in vivo gram-negative effect with a potency which, in general, is greater than cephalothin
- resistance to inactivation / enzymatic degradation (certain microorganisms): more resistant to enzymatic degradation than cephalosporin C
- resistance to inactivation / enzymatic degradation (certain microorganisms; listed as Antibiotic 842A): more stable than the latter against certain microorganisms; also recorded: more resistant than cephalosporin C to inactivation by A. faecalis, A. viscosus, Escherichia coli 236, Proteus morganii 251, Proteus morganii 236 and Proteus mirabilis 241
- stability, high pH [11]: unstable above pH 7
- stability, high pH ([11]; listed as Antibiotic 842A): unstable above pH 9.0
- stability, low pH [11]: stable at pH 1.5
- stability, low pH ([11]; listed as Antibiotic 842A): relatively stable at pH 1.5
- blood levels / excretion ([12]; in vivo): produces rapid blood levels; also recorded: rapidly excreted in the urine
- dose excreted at 6 h ([12]; urine, within six hours after administration, read-out: eliminated in the urine): ~100%
- percent inactivation (Proteus morganii 251; bacterial cells, 4 h): 80%
- percent inactivation (Proteus morganii 356 [6]; bacterial cells, 4 h): 69%
- percent inactivation (Proteus mirabilis 241; bacterial cells, 4 h): 5%
- percent inactivation (Escherichia coli 236): 38%
- Percent Inactivation After Incubation With Washed Bacterial Cells ([7]; 4 Hour Incubation, assayed on B. subtilis (MB-964) plates): 0%
- antibacterial activity [2]: exhibits activity against Salmonella schottmuelleri 3010, S. gallinarum and S. typhosa
- bactericidal action / development of resistance [2]: resistance to it develops slowly and it is bactericidal
- antibacterial activity ([2]; listed as Antibiotic 842A): inhibits the growth of the following gram-negative bacteria: Escherichia coli, Proteus vulgaris, Alcaligenes faecalis, Brucella bronchiseptica, Salmonella gallinarum, Vibrio percolans and Xanthomonas vesicatoria; also recorded: inhibits the growth of the following gram-positive bacteria: Staphylococcus aureus, Sarcina lutea and Bacillus subtilis; also recorded: enhanced activity against gram-negative microorganisms

SMILES: CC1(C)S[C@@H]2[C@H](NC(=O)Cc3ccccc3)C(=O)N2[C@H]1C(=O)O [Penicillin G]
- resistance to / degradation by penicillinase (penicillinase): in the presence of penicillinase it is degraded to a form which is ineffective against most pathogens
